Measurements: patent US20260070899A1, “N-(2-(4-CYANOTHIAZOLIDIN-3-YL)-2-OXOETHYL)-QUINOLINE-4-CARBOXAMIDES” (AstraZeneca AB, priority 2022, published 2026)

Assays:
[1] = target: T1, Prolyl endopeptidase, Prolyl Oligopeptidase (hPREP) (Homo sapiens, UniProt P48147); assay: biochemical
T1 sequence (P48147 1-710): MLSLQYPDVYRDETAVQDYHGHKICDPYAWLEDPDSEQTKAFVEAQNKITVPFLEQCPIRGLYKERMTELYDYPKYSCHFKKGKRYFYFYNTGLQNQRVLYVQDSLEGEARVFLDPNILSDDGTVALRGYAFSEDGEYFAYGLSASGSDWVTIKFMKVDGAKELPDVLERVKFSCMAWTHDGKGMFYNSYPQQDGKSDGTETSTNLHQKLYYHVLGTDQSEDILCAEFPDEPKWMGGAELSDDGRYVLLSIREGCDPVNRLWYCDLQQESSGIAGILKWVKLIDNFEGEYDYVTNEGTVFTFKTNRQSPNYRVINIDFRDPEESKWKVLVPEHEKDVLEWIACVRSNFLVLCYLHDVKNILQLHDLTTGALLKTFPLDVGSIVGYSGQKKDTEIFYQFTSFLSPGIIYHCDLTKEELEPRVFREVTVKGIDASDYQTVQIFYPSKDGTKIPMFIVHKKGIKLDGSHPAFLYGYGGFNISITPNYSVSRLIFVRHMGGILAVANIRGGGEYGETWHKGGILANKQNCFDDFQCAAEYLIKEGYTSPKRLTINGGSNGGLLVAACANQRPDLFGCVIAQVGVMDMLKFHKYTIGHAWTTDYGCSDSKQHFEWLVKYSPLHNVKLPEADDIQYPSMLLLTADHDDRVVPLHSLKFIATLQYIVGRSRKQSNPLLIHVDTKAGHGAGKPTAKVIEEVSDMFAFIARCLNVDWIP
Description: Compounds were tested in a biochemical inhibition assay using Prolyl endopeptidase, Prolyl Oligopeptidase (hPREP) enzyme at 0.6 nM FAC (R&D Systems, 4308-SE) and the substrate Z-Gly-Pro-amino-methylcoumarin (Bachem, I-1145) at 50 μM FAC. 384 Low volume black plates (Greiner #784076) were used. […] Plates were incubated for 15 min at rt in dark. 4 μL, 100 μM substrate solution (25 mM Tris HCl, 250 mM NaCl, 0.01% Triton X-100, 5 mM Glutathione, pH 7.5) was added to each well. Plates were centrifuged at 1000 rpm and incubated for 20 min at rt in dark. The plates were read on a PHERAstar® reader with excitation 340 nm and emission 460 nm. Data were analyzed in Genedata Screener®. IC50 values were determined by plotting % inhibition versus log compound concentration and using a one site dose response model.

hFAP (M39-A757) = target: T2, hFAP (M39-A757) (Homo sapiens, UniProt Q12884); assay: biochemical;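 further: surface plasmon resonance direct binding to hFAP amine-coupled on a sensor chip, rising compound concentrations by single cycle kinetics, Kd from global fit of interaction models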
T2 sequence (Q12884 39-757): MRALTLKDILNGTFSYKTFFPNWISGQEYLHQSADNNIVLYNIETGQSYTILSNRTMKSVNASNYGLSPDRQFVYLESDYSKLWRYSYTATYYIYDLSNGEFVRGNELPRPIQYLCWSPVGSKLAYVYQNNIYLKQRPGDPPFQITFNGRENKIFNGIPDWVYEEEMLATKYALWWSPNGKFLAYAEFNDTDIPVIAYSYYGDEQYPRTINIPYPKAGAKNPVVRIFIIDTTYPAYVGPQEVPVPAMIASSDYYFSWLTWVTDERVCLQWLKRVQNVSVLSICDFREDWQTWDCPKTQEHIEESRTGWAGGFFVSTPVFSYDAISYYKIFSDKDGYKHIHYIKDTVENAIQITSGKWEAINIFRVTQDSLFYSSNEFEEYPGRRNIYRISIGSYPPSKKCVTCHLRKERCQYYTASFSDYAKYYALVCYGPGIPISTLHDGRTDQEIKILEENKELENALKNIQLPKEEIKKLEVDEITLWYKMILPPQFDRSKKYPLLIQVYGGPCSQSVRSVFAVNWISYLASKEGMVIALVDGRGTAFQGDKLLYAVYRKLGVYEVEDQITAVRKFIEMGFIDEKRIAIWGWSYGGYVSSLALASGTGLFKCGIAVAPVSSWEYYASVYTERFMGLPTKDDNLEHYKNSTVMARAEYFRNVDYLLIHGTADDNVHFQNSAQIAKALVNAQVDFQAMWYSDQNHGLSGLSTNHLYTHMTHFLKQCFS
Description: Compounds were tested in a direct binding assay using 8K surface plasmon resonance biosensor (GE Healthcare) at 20° C. Immobilization of hFAP (M39-A757) on a CMD200M sensor chip (Xantec) was performed using standard amine coupling procedure in immobilization buffer (10 mM HEPES, 150 mM NaCl, 0.05% Tween20, pH 7.4). The surface was washed with 10 mM aq NaOH, 1M NaCl before being activated with EDC/NHS (GE Healthcare), followed by immobilization of hFAP (in 10 mM Acetate pH 5.0). Finally, the surface was deactivated by ethanolamine. Immobilization levels of hFAP were around 4000-6000 RU. The reference spot was treated as described, omitting the injection of hFAP. Compound concentration series were injected over the immobilized protein in increasing concentrations (2-500 nM) using single cycle kinetics in running buffer (20 mM TRIS, 150 mM NaCl, 0.05% Tween20, 1% DMSO, pH 7.4). Interaction models were fitted globally to the experimental traces, enabling determination of kon, koff and Kd.

IC50 [1] | Kd (hFAP (M39-A757)) | Structure (SMILES)
1000 nM | 0.022 nM | CO[C@H]1CC[C@H](c2ccc3nccc(C(=O)NCC(=O)N4CSC[C@H]4C#N)c3c2)CC1 (single isomer, unassigned) [Example 78, N-(2-((R)-4-Cyanothiazolidin-3-yl)-2-oxoethyl)-6-((1r,4R*)-4-methoxycyclohexyl)quinoline-4-carboxamide]
950 nM | 0.062 nM | CC(C)(F)COc1ccc2nccc(C(=O)NCC(=O)N3CSC[C@H]3C#N)c2c1 [Example 3, (R)—N-(2-(4-Cyanothiazolidin-3-yl)-2-oxoethyl)-6-(2-fluoro-2-methylpropoxy)quinoline-4-carboxamide]
640 nM | 0.23 nM | CC(C)(O)c1ccc2nccc(C(=O)NCC(=O)N3CSC[C@H]3C#N)c2c1 [Example 16, (R)—N-(2-(4-Cyanothiazolidin-3-yl)-2-oxoethyl)-6-(2-hydroxypropan-2-yl)quinoline-4-carboxamide]
860 nM | 0.43 nM | COC(C)(C)c1ccc2nccc(C(=O)NCC(=O)N3CSC[C@H]3C#N)c2c1 [Example 18, (R)—N-(2-(4-Cyanothiazolidin-3-yl)-2-oxoethyl)-6-(2-methoxypropan-2-yl)quinoline-4-carboxamide]
120 nM | 0.62 nM | N#C[C@@H]1CSCN1C(=O)CNC(=O)c1ccnc2ccc(C3(C#N)CC3)cc12 [Example 70, (R)-6-(1-Cyanocyclopropyl)-N-(2-(4-cyanothiazolidin-3-yl)-2-oxoethyl)quinoline-4-carboxamide]

The remaining lines, values behind:

Structure (SMILES) | IC50 [1] | Kd (hFAP (M39-A757))
N#C[C@@H]1CSCN1C(=O)CNC(=O)c1ccnc2ccc(C3CCCCO3)cc12 (mixture of isomers) [Example 32, N-(2-((R)-4-Cyanothiazolidin-3-yl)-2-oxoethyl)-6-((RS)-tetrahydro-2H-pyran-2-yl)quinoline-4-carboxamide] | 910 nM | 0.35 nM
N#C[C@@H]1CSCN1C(=O)CNC(=O)c1ccnc2ccc(C3(O)CCOCC3)cc12 [Example 15, (R)—N-(2-(4-Cyanothiazolidin-3-yl)-2-oxoethyl)-6-(4-hydroxy-tetrahydro-2H-pyran-4-yl)quinoline-4-carboxamide] | 1100 nM | 0.068 nM
N#C[C@@H]1CSCN1C(=O)CNC(=O)c1ccnc2ccc(C3CCOCC3)cc12 [Example 20, (R)—N-(2-(4-Cyanothiazolidin-3-yl)-2-oxoethyl)-6-(tetrahydro-2H-pyran-4-yl)quinoline-4-carboxamide] | 1000 nM | 0.056 nM
CCOC1(c2ccc3nccc(C(=O)NCC(=O)N4CSC[C@H]4C#N)c3c2)CCOCC1 [Example 23, (R)—N-(2-(4-Cyanothiazolidin-3-yl)-2-oxoethyl)-6-(4-ethoxytetrahydro-2H-pyran-4-yl)quinoline-4-carboxamide] | 1100 nM | 0.059 nM
